Measurements from ChEMBL document CHEMBL1123680, “The influence of physicochemical parameters on the biliary excretion of a series of nitroimidazoles” (J Med Chem, 1987).

Assays:
[1] = Percent biliary excretion property by administering intravenously to rats was reported as amount of unchanged form of compound detected in bile samples collected at 0-3 hr after the treatment.; conditions: rat, iv
[2] = Percent biliary excretion property by administering intravenously to rats was reported as amount of unchanged form of compound detected in bile samples collected at 0-1 hr after the treatment.; conditions: rat, iv
[3] = Percent biliary excretion property by administering intravenously to rats was reported as amount of unchanged form of compound detected in bile samples collected at 0-4 hr after the treatment.; conditions: rat, iv
[4] = Percent biliary excretion property by administering intravenously to rats was reported as amount of unchanged form of compound detected in bile samples collected at 0-6 hr after the treatment.; conditions: rat, iv
[5] = Percent biliary excretion property by administering intravenously to rats was reported as amount of unchanged form of compound detected in bile samples collected at 0-2 hr after the treatment.; conditions: rat, iv
[6] = Percent biliary excretion property by administering intravenously to rats was reported as amount of unchanged form of compound detected in bile samples collected at 0-5 hr after the treatment.; conditions: rat, iv
[7] = Partition coefficient (logP); conditions: octanol/water

| dose excreted [1] | dose excreted [2] | dose excreted [3] | dose excreted [4] | dose excreted [5] | dose excreted [6] | logP [7] | SMILES |
| --- | --- | --- | --- | --- | --- | --- | --- |
| 10.6% | 1.68% | 12.3% | 14.7% | 7.33% | 13.5% |  | Cc1ncc([N+](=O)[O-])n1CC(O)CCl (stereo not drawn) [ORNIDAZOLE] |
| 5.11% | 1.91% | 7% | 8.94% | 3.43% | 8.42% |  | COC(=S)NCCn1c([N+](=O)[O-])cnc1C [CARNIDAZOLE] |
| 5.25% | 1.99% | 7.58% | 10.5% | 3.47% | 8.81% |  | CCS(=O)(=O)CCn1c([N+](=O)[O-])cnc1C [TINIDAZOLE] |
| 29.6% | 16.7% | 34.6% | 37.8% | 23.3% | 34.6% |  | Cn1c([N+](=O)[O-])cnc1CO |
| 9.6% | 2.99% | 11.7% | 14% | 5.37% | 14% |  | CC(C)c1ncc([N+](=O)[O-])n1C [IPRONIDAZOLE] |
| 8.88% | 4% | 15.5% | 19.7% | 6.96% | 16.2% | -0.38 | Cn1c([N+](=O)[O-])cnc1COC(N)=O [RONIDAZOLE] |
| 25% | 13% | 29.2% | 32% | 19.2% | 31.1% | -0.69 | Cn1c([N+](=O)[O-])cnc1C=O |
| 25% | 14.4% | 28.4% | 33.1% | 21.1% | 30.6% |  | Cn1c([N+](=O)[O-])cnc1/C=C/c1ccnc(N)n1 [AZANIDAZOLE] |
| 16.8% | 6.77% | 19.7% | 24.6% | 12.5% | 22.3% |  | Cc1ncc([N+](=O)[O-])n1CCO [METRONIDAZOLE] |
| 6.92% | 3.42% | 8.71% | 11.8% | 5.25% | 10.7% |  | O=[N+]([O-])c1cncn1CCN1CCOCC1 [NIMORAZOLE] |

| SMILES | dose excreted [1] | dose excreted [2] | dose excreted [3] | dose excreted [4] | dose excreted [5] | dose excreted [6] | logP [7] |
| --- | --- | --- | --- | --- | --- | --- | --- |
| O=[N+]([O-])c1c[nH]cn1 | 17.6% | 8.71% | 20.9% | 26.2% | 14.1% | 24.3% |  |
